# Reference: patent US10183058B2, “Method of preventing or reducing the progression of prostate cancer” (Nymox Corporation, priority 2016, dated 2019)
# Ends that are not written are not given here.
# System: prostate cancer
# Experiment: Clinical studies in men with BPH given SEQ ID NO. 66 by intraprostatic injection; incidence of clinically or biopsy detected prostate cancer
# Assay type: in vivo, human (men)
# Details: 2.5 mg intraprostatic injection; for Incidence of cancer (Gleason Grade >= 7): follow-up up to 6.5 years, compared to known expected incidence of 5-6%
# Procedure: In a series of clinical studies undertaken between 2009 and 2016 a total of 628 men with benign prostatic hyperplasia (BPH) received SEQ ID NO. 66 (Ile-Asp-Gln-Gln-Val-Leu-Ser-Arg-Ile-Lys-Leu-Glu-Ile-Lys-Arg-Cys-Leu), 2.5 mg given by intraprostatic injection into the transition zone of the prostate to treat the symptoms of BPH and were subsequently followed clinically and by laboratory testing. After intervals up to 6.5 years after injection, all available patients were followed urologically at specialized clinics with investigation of BPH symptoms and events of disease progression and safety assessments. All cases of clinically or biopsy detected prostate cancer were documented. The incidence of new biopsy or surgically proven prostate cancer after 12 months and overall was compared to the incidence of detected prostate cancer in large long-term clinical trials in the medical literature. Although a) the treatments were for BPH; b) the injections were directed at the central part of the prostate where cancer is less common; and c) the injections consisted of only a single or two injection(s) of SEQ ID NO. […]
# In a series of clinical studies undertaken between 2009 and 2016, a total of 816 men with benign prostatic hyperplasia (BPH) received SEQ ID NO. […] All cases of clinically or biopsy detected prostate cancer were documented. The incidence of new biopsy or surgically proven prostate cancer after 12 months and overall was compared to the incidence of detected prostate cancer in the patients receiving the sterile saline solution (control). […]
# In a series of clinical studies undertaken between 2009 and 2016 a total of 628 men with benign prostatic hyperplasia (BPH) received SEQ ID NO. […] All cases of clinically or biopsy detected prostate cancer were documented. The incidence of new biopsy or surgically proven prostate cancer of Gleason Grade>=7 was compared to the incidence of detected prostate cancer in large long-term clinical trials in the medical literature. […]
sequence,measurement,setting,value
IDQQVLSRIKLEIKRCL [SEQ ID NO: 66],incidence of prostate cancer (after 12 months and overall),compared to known expected incidence of 2-25%,0-1.3%
same,Incidence of cancer (Gleason Grade >= 7),,<0.3%
same,Incidence of cancer (Gleason Grade >= 7),listed as SEQ ID NO. 66,< 0.3%
